Measurements published in patent publication US7776826B2, “Method for fostering bone formation and preservation” (Unigene Laboratories, Inc., priority 2004, dated 2010).
Where no end group is shown, it is not given here.

Legend:
Type in all cases: in vivo, rat
[1] = system: osteoporotic female Sprague-Dawley rats; experiment: Lumbar vertebral bone mineral density and bone formation rate in ovariectomized osteoporotic rats, without mechanical induction; settings: OVX rats, 4 weeks subcutaneous treatment, no mechanical induction
Procedure: FIG. 15 is a bar graph comparing the Lumbar Vertebral Bone Mineral Density obtained in osteoporotic female Sprague-Dawley rats wherein the osteoporosis was induced via an ovariectomy. The rats were treated with (1) PTH[1-31]-NH2; (2) PTH[1-34]-NH2; and PTH[1-34]-OH; and
FIG. 16 is a bar graph comparing the Lumbar Vertebral Bone Formation Rate obtained in osteoporotic female Sprague-Dawley rats wherein the osteoporosis was induced via an ovariectomy. The rats were treated with (1) PTH[1-31]-NH2; (2) PTH[1-34]-NH2; and PTH[1-34]-OH.
A series of experiments was performed comparing (1) lumbar vertebral bone mineral density, and (2) lumbar vertebral bone formation rate achieved with PTH[1-31]-NH2 and PTH[1-34]-OH compared to the preferred PTH[1-34]-NH2 analog discussed above in the absence of the mechanical induction step of the invention. The study involved a four-week treatment of female Sprague-Dawley rats at 10 months of age, and 6 months post-ovariectomy (“OVX”), which induces osteoporosis, with one of the three above-noted parathyroid hormone truncates. The rats were randomized into the following groups: sham OVX, OVX+ vehicle, OVX+PTH [1-31]-NH2 or PTH [1-34]-NH2 (obtained from Unigene Laboratories, Inc.) at 2.5, 10 or 40 μg/kg/day subcutaneous, or PTH[1-34]-OH (obtained from Bachem) at 10 μg/kg/day subcutaneous. After 4 weeks of treatment, the right femur of each animal was analyzed by DEXA and bone histomorphometry. FIG. 15 is a bar graph providing a comparison of the lumbar vertebral bone mineral density achieved with PTH[1-31]-NH2, PTH[1-34]-NH2 and PTH[1-34]-OH. FIG. 16 is a bar graph comparing the lumbar vertebral formation rates achieved with these same truncates. […] Because of the similarity of anabolic action among the above-discussed parathyroid hormones, it is therefore reasonable to expect that all known PTH analogs will advantageously function in the desired manner in the method of the present invention.

Male Sprague-Dawley rats [2] = experiment: Serum osteocalcin concentration at day 21, Groups K-R; settings: for osteocalcin level, in words: bmx + agent daily for 21 days; for Osteocalcin mean: bmx rats, day 21, agent daily for 21 days, Groups K-R
Text: FIG. 12 provides a measurement of the serum osteocalcin concentration (in ng/ml) in the blood of the rats in Groups K-R when the rats were sacrificed 21 days after commencement of treatment. The meaning of the abbreviated terms is the same as in FIGS. 10 and 11. […] [*=p value<0.05, while **=p value<0.01];
FIG. 12 is a bar graph which sets forth the osteocalcin levels determined, at the time of sacrifice, in the blood serum of the rats which were the subject of the analyses illustrated in FIGS. 10 and 11. As indicated above, it is well known that osteocalcin is a biochemical marker indicative of new bone growth.
The table additionally includes the standard deviations for the values obtained for each analysis, which standard deviations are also included in FIG. 12.

Male Sprague-Dawley rats [3] = experiment: pQCT analysis of left and right femoral shafts at day 21, Groups K-R; settings: for Left femoral shaft Total density mean / Left femoral shaft Trabecular density mean: ablated femur; for Left femoral shaft Total density mean / Left femoral shaft Trabecular density mean / Right femoral shaft Total density mean / Right femoral shaft Trabecular density mean: day 21, agent daily for 21 days, Groups K-R; for trabecular bone density of left femoral shaft, in words: bmx, day 21; for Right femoral shaft Total density mean / Right femoral shaft Trabecular density mean: non-ablated femur
Text: (§1) FIG. 10 (a-b) presents high resolution radiograms of the left and right femurs, respectively, from an additional series of experiments on additional groups of male Sprague-Dawley rats (6 rats per group) aged 9 weeks which were sacrificed and tested after 21 days (3 weeks). The various groups were subjected to the following treatment modalities: Group K—control day 0; Group L—control day 21; Group M—bone marrow ablation (bmx) day 0; Group N—sham day 21; Group O— bmx+phosphate buffer saline (PBS) daily for 21 days; Group P—bmx+PTH[1-34]-NH2 daily for 21 days; Group Q—bmx+ parathyroid hormone related peptide (PTHRP) daily for 21 days; and Group R—bmx+rat α-calcitonin gene related peptide (CGRP) daily for 21 days;
FIG. 11 (a-d) are graphical representations of the results of Peripheral Quantitative Computerized Tomography (PQCT) analyses of, respectively, the left (ablated) and right (non-ablated) femoral shafts of the rats from Groups K-R (see description of FIG. 10). FIGS. 11(a) and 11(b) illustrate the trabecular bone density observed in, respectively the left and right femoral shafts at day 21; whereas, FIGS. 11(c) and 11(d) illustrate the total bone density of, respectively, the left and right femoral shafts at the same interval. The meanings of the abbreviations used in FIGS. 11(a-d) are identical to those described above with regard to FIG. 10. […] [+=p value<0.01 vs. sham; *=p value<0.01 vs. bmx+PTH; **=p value<0.01 vs. bmx+PTH; and #=p value<0.05 vs. PBS];
An additional series of experiments was thereafter carried out with additional groups of rats (K-R) in order to (1) measure the effect of additional bone anabolic agents, i.e., other than parathyroid hormone (PTH[1-34]-NH2) and calcitonin, as well as to compare the effect(s) achieved with such parathyroid hormone with those obtained with the use of alternate anabolic agents, including parathyroid hormone related peptide (PTHrP) and calcitonin gene related peptide (CGRP). As in the case of the analyses discussed above with regard to FIGS. 3-9, in the animals tested only the left femur underwent the bone marrow ablation (bmx) procedure, i.e., there was no ablation of the right femur. Thus, as noted above, any views of the right femur in the figures described below indicating bone marrow ablation (bmx) as a treatment modality should be taken to mean that such treatment was applied to the corresponding left femur. Further, as was additionally the case above, the samples described below with regard to FIGS. 10-13 were taken from the femur shafts, rather than the corresponding distal epiphysis as in the case of FIGS. 1 and 2. The figures discussed below depict the results of end-point studies wherein the measurements were taken only at the 21 day end-point.
FIG. 11 (a-d) graphically illustrates, by means of a bar graph, the improvements in trabecular bone density and, to some extent, total bone density, in the left femoral shaft of rats subjected to the treatment modalities described above with regard to FIG. 10 (a-b); that is, control day 0; bmx day 0; control day 21; sham day 21; bmx+PBS on day 21; bmx+PTH on day 21; bmx+PTHrP on day 21; and bmx+CGRP on day 21. Again, this is attributable that (only) the left femur was subjected to the bmx treatment, and thus was the only femur wherein the effects of such bmx treatment overlapped with that of the systemic treatment with the bone anabolic agent. […] In contrast to the values obtained for the left femur, no significant amount of bone was formed in the right femur, notwithstanding whether it is trabecular bone density or total bone density which is being measured. This lack of new bone is, furthermore, attributable to the fact that the right femur had not been subjected to the bone marrow ablation (bmx) treatment.

Male Sprague-Dawley rats [4] = experiment: High resolution radiograms of left and right femurs, Groups K-R; settings: left femur with bmx, agent daily for 21 days
Text: as §1
FIG. 10 (a-b) presents a set of high resolution radiograms of the entire left and right femurs of additional (to those described above) groups of rats, injected daily for a designated term with one or more of the following agents: phosphate buffer saline (PBS); parathyroid hormone (PTH[1-34]-NH2); parathyroid hormone related peptide (PTHrP); and calcitonin gene related peptide (CGRP). The rats chosen for test subjects were subjected to the following treatment modalities (as indicated in the lower left corner of each of the radiograms): control day 0; control day 21; bone marrow ablation (bmx) day 0; sham day 21; bmx followed by injection of PBS buffer daily for 21 days; bmx followed by injection of PTH daily for 21 days; bmx followed by injection of PTHrP daily for 21 days; and bmx followed by injection of CGRP daily for 21 days.
As shown by FIG. 10(a), the best results, i.e., the greatest bone density, was obtained in the left femur wherein the effect of the bone marrow ablation overlapped with that attributable to the administration of the various anabolic agents. As in the case of FIG. 3, the lighter, i.e, more radio-opaque, areas indicate the locations of the greatest additional bone growth.

Male Sprague-Dawley rats [5] = experiment: MicroCT analysis of femoral shafts, Groups K-R; settings: left femoral shaft with bmx, agent for 21 days
Text: FIG. 13(a-b) illustrate the results of Micro Computerized Tomography (MicroCT) analysis of the left (ablated) and right (non-ablated) femoral shafts of the rats of Groups K-R. The abbreviations are the same as those used in FIGS. 10-12;
FIG. 13 (a-b) provides a comparison between Micro Computerized Tomography (MicroCT) analyses of bone samples taken from the left femoral shaft (FIG. 13a) and the right femoral shaft (FIG. 13b) of rats treated in the manner indicated in FIGS. 10-12. As in the other cases discussed above, the most significant amount of new bone growth is found in the shaft of the left femur, since this shaft was subjected to the bmx treatment. […] In contrast, the right femoral shaft sections show very little or no increase in bone growth at all.

Row | Compound | bone anabolic activity (lumbar vertebral bone mineral density and bone formation rate) [1] | osteocalcin level, in words (Male Sprague-Dawley rats [2]) | Osteocalcin mean (Male Sprague-Dawley rats [2]) [ng/mL] | Left femoral shaft Total density mean (Male Sprague-Dawley rats [3]) [mg/mL] | Left femoral shaft Trabecular density mean (Male Sprague-Dawley rats [3]) [mg/mL] | trabecular bone density of left femoral shaft, in words (Male Sprague-Dawley rats [3]) | Right femoral shaft Total density mean (Male Sprague-Dawley rats [3]) [mg/mL] | Right femoral shaft Trabecular density mean (Male Sprague-Dawley rats [3]) [mg/mL] | bone density on radiograms, in words (Male Sprague-Dawley rats [4]) | new bone growth in MicroCT, in words (Male Sprague-Dawley rats [5])
1 | CC[C@H](C)[C@H](NC(=O)[C@H](CCC(=O)O)NC(=O)[C@H](CO)NC(=O)[C@@H](NC(=O)[C@@H](N)CO)C(C)C)C(=O)N[C@@H](CCC(N)=O)C(=O)N[C@@H](CC(C)C)C(=O)N[C@@H](CCSC)C(=O)N[C@@H](Cc1cnc[nH]1)C(=O)N[C@@H](CC(N)=O)C(=O)N[C@@H](CC(C)C)C(=O)NCC(=O)N[C@@H](CCCCN)C(=O)N[C@@H](Cc1cnc[nH]1)C(=O)N[C@@H](CC(C)C)C(=O)N[C@@H](CC(N)=O)C(=O)N[C@@H](CO)C(=O)N[C@@H](CCSC)C(=O)N[C@@H](CCC(=O)O)C(=O)N[C@@H](CCCN=C(N)N)C(=O)N[C@H](C(=O)N[C@@H](CCC(=O)O)C(=O)N[C@@H](Cc1c[nH]c2ccccc12)C(=O)N[C@@H](CC(C)C)C(=O)N[C@@H](CCCN=C(N)N)C(=O)N[C@@H](CCCCN)C(=O)N[C@@H](CCCCN)C(=O)N[C@@H](CC(C)C)C(=O)N[C@@H](CCC(N)=O)C(=O)N[C@@H](CC(=O)O)C(=O)N[C@H](C(=O)N[C@@H](Cc1cnc[nH]1)C(=O)N[C@@H](CC(N)=O)C(=O)N[C@@H](Cc1ccccc1)C(=O)O)C(C)C)C(C)C [PTH[1-34]-OH, reference compound] | substantially equivalent | – | – | – | – | – | – | – | – | –
2 | PTH[1-31]-NH2 (SVSEIQLMHNLGKHLNSMERVEWLRKKLQDV-NH2; UniProt P01270 32-62, looked up, fragment) [amidated parathyroid hormone truncate obtained from Unigene Laboratories] | substantially equivalent | – | – | – | – | – | – | – | – | –
3 | parathyroid hormone related peptide [PTHRP] | – | Significant new bone growth | 124.2 | 1017.9 | 403.1 | significantly improved | 858.2 | 122.4 | satisfactory results | significant degree of improvement
4 | rat α-calcitonin gene related peptide [CGRP] | – | no increase | 97 | 963.5 | 283.5 | significantly improved | 831.1 | 115.5 | satisfactory results | new bone growth, although lesser in scope
